Experiments:
[1] = tested on: HCO_014287; assay: Thermal proteome profiling (TPP); format: binding, Haemonchus contortus; conditions: UMW-868 at 50 μM, xL3 protein extract, 37–67°C, versus PBS control
Excerpt: (§1) TPP is an advanced, multiplexed mass-spectrometry method that allows the unbiased identification or detection of drug targets ([Savitski et al., 2014]; [Perrin et al., 2020]; [Mateus et al., 2022]); it relies on the thermostability of protein-drug interactions to identify potential target protein(s) through denaturation profiles (melting curves) upon heat treatment ([Childs et al., 2019]), and has proven capacity to specifically identify targets of anti-cancer drugs or drug candidates ([Savitski et al., 2014]; [Perrin et al., 2020]; [Mateus et al., 2022]). […] The protein concentration in the supernatant was measured using a BCA Protein Assay Kit (Thermo Fisher Scientific), adjusted to 2 mg/ml and divided into four 250 μl aliquots/replicates (each containing 500 μg protein). • (ii) Incubation with compound (UMW-868), and temperature profile: Of the four 250 µl aliquots of xL3 proteins, two (i.e., test-samples) were each incubated with an equal volume of compound (UMW-868 at 50 μM), and two (control-samples) with an equal volume of PBS (pH 7.0) for 30 min at 23°C. […]

[2] = tested on: HCO_011565; assay: Thermal proteome profiling (TPP); format: binding, Haemonchus contortus; conditions: UMW-868 at 50 μM, xL3 protein extract, 37–67°C, versus PBS control
Excerpt: as §1

[3] = tested on: exsheathed third-stage larvae (xL3s) of H. contortus; assay: High throughput screen, xL3 motility (infrared light beam-interference); format: cell-based; conditions: Haemonchus contortus, 90 h, read-out: Motility reduction at 90 h (%)
Method: An established platform was used for compound screening ([Taki et al., 2021a]). Using a semi-automated liquid handling robot (VIAFLO ASSIST PLUS, Integra Biosciences), compounds were individually diluted to […] in LB* containing 0.2% (v/v) DMSO and then dispensed in 20 µl into the wells of sterile 384-well flat bottom microtitre plates (cat. no. 3680; Corning); 320 compounds were arrayed on each plate, with 16 wells being negative controls (with LB* + 0.2% DMSO) and four wells containing each monepantel (Zolvix; Elanco), moxidectin (Cydectin; Virbac), monepantel + abamectin (Zolvix Plus; Elanco) and compound MIPS-0018666 (abbreviated here as M-666) ([Le et al., 2018]) as positive controls (20 µM). Following the dilution and dispensing of compounds into plates, 80 H. contortus xL3s in 20 μl of LB* were transferred to individual wells; after this step, the final concentrations were 20 µM of test- or positive-control compound, and 0.2% of DMSO. During dispensing, xL3s were maintained in a homogenous suspension using a constant stream of bubbles produced employing an aquarium pump (H2Pro). Plates containing H. contortus xL3s were incubated at 38 °C, 10% (v/v) CO2 and >90% relative humidity.
After 90 h of incubation with compounds (20 μM), H. contortus xL3s motility was measured for 15 min in individual wells of each plate by infrared light beam-interference ([Simonetta and Golombek, 2007]) using a WMicroTracker ONE instrument (Phylumtech). Raw data captured were normalised against measurements obtained for the positive (monepantel) and negative (LB* + 0.2% DMSO) controls to remove plate-to-plate variation by calculating the percentage of motility using the program GraphPad Prism (v.9.1.2; GraphPad Software). A compound was considered active (“hit”) if it reduced larval motility by ≥ 70%. To continually assess the performance of the screening assay, the Z′-factor ([Zhang et al., 1999]) was calculated (using data for the DMSO and the M-666 controls) for individual plates (n = 43) and was consistently ≥0.7; reliable assays achieve a Z′-factor of between 0.5 and 1. The signal to background (S/B) ratio (for the same controls) ([Sui and Wu, 2007]) was consistently >200.

CCCc1ccc(-c2nc(-c3cccs3)no2)cc1 [UMW-868, 5-(4-propylphenyl)-3-(2-thienyl)-1,2,4-oxadiazole]
thermostability of protein in presence of compound [1]: highest, statistically significant thermostability
thermostability of protein in presence of compound [2]: highest, statistically significant thermostability
inhibition at 20 µM [3]: 78.4%

From paper PMC9616048, “Thermal proteome profiling reveals Haemonchus orphan protein HCO_011565 as a target of the nematocidal small molecule UMW-868” (Frontiers in Pharmacology, 2022)
